From paper PMC5012625 (International Journal of Nanomedicine, 2016)

How the values were obtained:
[1] = Pharmacokinetic study in rats; format: in vivo; conditions: female, Sprague Dawley, rat, plasma
[2] = Particle size and surface charge by dynamic light scattering; format: physicochemical; conditions: dynamic light scattering analyzer, Nano ZS, mean ± SD

Row | AUC(0-inf) ([1]; 0.1 mg kg^−1) [ng·h/mL] | AUC(0-t) ([1]; 0.1 mg kg^−1) [ng·h/mL] | Cmax ([1]; 0.1 mg kg^−1) [ng/mL] | Tmax ([1]; 0.1 mg kg^−1) [min] | F rel ([1]; 0.1 mg/kg) [%] | AUC(0-inf) ([1]; sc, 0.02 mg kg^−1) [ng·h/mL] | AUC(0-t) ([1]; sc, 0.02 mg kg^−1) [ng·h/mL] | Cmax ([1]; sc, 0.02 mg kg^−1) [ng/mL] | Tmax ([1]; sc, 0.02 mg kg^−1) [min] | Zeta potential [2] | Compound
1 | 0.0448 | 0.0309 | 0.0392 ± 0.0198 | 30 | 1.06 ± 0.85 | 0.603 | 0.585 | 0.711 ± 0.0978 | 15 |  | CC[C@H](C)[C@H](NC(=O)[C@H](CCC(=O)O)NC(=O)[C@H](CO)NC(=O)[C@@H](NC(=O)[C@@H](N)CO)C(C)C)C(=O)N[C@@H](CCC(N)=O)C(=O)N[C@@H](CC(C)C)C(=O)N[C@@H](CCSC)C(=O)N[C@@H](Cc1cnc[nH]1)C(=O)N[C@@H](CC(N)=O)C(=O)N[C@@H](CC(C)C)C(=O)NCC(=O)N[C@@H](CCCCN)C(=O)N[C@@H](Cc1cnc[nH]1)C(=O)N[C@@H](CC(C)C)C(=O)N[C@@H](CC(N)=O)C(=O)N[C@@H](CO)C(=O)N[C@@H](CCSC)C(=O)N[C@@H](CCC(=O)O)C(=O)N[C@@H](CCCN=C(N)N)C(=O)N[C@H](C(=O)N[C@@H](CCC(=O)O)C(=O)N[C@@H](Cc1c[nH]c2ccccc12)C(=O)N[C@@H](CC(C)C)C(=O)N[C@@H](CCCN=C(N)N)C(=O)N[C@@H](CCCCN)C(=O)N[C@@H](CCCCN)C(=O)N[C@@H](CC(C)C)C(=O)N[C@@H](CCC(N)=O)C(=O)N[C@@H](CC(=O)O)C(=O)N[C@H](C(=O)N[C@@H](Cc1cnc[nH]1)C(=O)N[C@@H](CC(N)=O)C(=O)N[C@@H](Cc1ccccc1)C(=O)O)C(C)C)C(C)C [rhPTH (1-34)]
2 |  |  |  |  |  |  |  |  |  | 6.27±1.29 | lysine-linked deoxycholic acid [LysDOCA]
